The text below walks through data of US10287641B2, “Lactobacillus apinorum and Lactobacillus mellifer from honeybees in medical, food and feed applications” (CONCELLAE AB, priority 2014, dated 2019).

Each structure is given as a SMILES string.

The assay deals with clinical isolates of pathogenic wound bacteria and yeast. Briefly: Dual culture overlay assays, whole pathogen panel and antibiotic controls. Type of assay: cell-based. As to conditions: antibiotic 30 μg; pathogen of each column not given. Here is the method:
Used pathogens (Table 2) were cultivated in Nutrient broth (Oxoid) at 37° C. during 24 hours prior to test in the antagonism assays.
Dual Culture Overlay Assay Antimicrobial activity was measured by using dual culture overlay assay. The Lactobacillus apinorum and Lactobacillus mellifer strains (Table 2) were put into a filter disk and placed onto supplemented MRS agar plates followed by overnight incubation at 35° C.

On to `O=C(N[C@H](CO)[C@H](O)c1ccc([N+](=O)[O-])cc1)C(Cl)Cl` [Cl, Chloramphenicol], for which the “diameter of the inhibition zone, antibiotic control” value was “^S19 millimetres”.
With `CO/N=C(\C(=O)N[C@@H]1C(=O)N2C(C(=O)O)=C(COC(N)=O)CS[C@H]12)c1ccco1` [Cx, Cefuroxime sodium] the figure was 28 millimetres.
